Measured values as given in ChEMBL document CHEMBL5724796, “Tm Shift (DSF) assay results for EUbOPEN Chemogenomics Library” (2024).
Non-standard residues stand in square brackets, D forms with d. Residues, ends and D or L forms follow the SMILES beside them. *: point of attachment. Tyr(3-Cl) = N[C@@H](Cc1ccc(O)c(Cl)c1)C(=O)O; Benzoyl(3,5-Cl2) = O=C(c1cc(Cl)cc(Cl)c1)*; Lys(Et2) = CCN(CC)CCCC[C@H](N)C(=O)O; Gly(cPent) = N[C@H](C(=O)O)C1CCCC1; NH(propargyl) = C#CCN*

Key:
[1] = molecular target: Fibroblast growth factor receptor 2 (Homo sapiens) (UniProt P21802); conditions: Compound concentration 20.0 uM
Description: Thermal Shift Assay. Domain: start/stop: T457-E768

[2] = molecular target: T1, Peregrin (Homo sapiens) (UniProt P55201); conditions: Compound concentration 20.0 uM
T1 sequence (whole entry): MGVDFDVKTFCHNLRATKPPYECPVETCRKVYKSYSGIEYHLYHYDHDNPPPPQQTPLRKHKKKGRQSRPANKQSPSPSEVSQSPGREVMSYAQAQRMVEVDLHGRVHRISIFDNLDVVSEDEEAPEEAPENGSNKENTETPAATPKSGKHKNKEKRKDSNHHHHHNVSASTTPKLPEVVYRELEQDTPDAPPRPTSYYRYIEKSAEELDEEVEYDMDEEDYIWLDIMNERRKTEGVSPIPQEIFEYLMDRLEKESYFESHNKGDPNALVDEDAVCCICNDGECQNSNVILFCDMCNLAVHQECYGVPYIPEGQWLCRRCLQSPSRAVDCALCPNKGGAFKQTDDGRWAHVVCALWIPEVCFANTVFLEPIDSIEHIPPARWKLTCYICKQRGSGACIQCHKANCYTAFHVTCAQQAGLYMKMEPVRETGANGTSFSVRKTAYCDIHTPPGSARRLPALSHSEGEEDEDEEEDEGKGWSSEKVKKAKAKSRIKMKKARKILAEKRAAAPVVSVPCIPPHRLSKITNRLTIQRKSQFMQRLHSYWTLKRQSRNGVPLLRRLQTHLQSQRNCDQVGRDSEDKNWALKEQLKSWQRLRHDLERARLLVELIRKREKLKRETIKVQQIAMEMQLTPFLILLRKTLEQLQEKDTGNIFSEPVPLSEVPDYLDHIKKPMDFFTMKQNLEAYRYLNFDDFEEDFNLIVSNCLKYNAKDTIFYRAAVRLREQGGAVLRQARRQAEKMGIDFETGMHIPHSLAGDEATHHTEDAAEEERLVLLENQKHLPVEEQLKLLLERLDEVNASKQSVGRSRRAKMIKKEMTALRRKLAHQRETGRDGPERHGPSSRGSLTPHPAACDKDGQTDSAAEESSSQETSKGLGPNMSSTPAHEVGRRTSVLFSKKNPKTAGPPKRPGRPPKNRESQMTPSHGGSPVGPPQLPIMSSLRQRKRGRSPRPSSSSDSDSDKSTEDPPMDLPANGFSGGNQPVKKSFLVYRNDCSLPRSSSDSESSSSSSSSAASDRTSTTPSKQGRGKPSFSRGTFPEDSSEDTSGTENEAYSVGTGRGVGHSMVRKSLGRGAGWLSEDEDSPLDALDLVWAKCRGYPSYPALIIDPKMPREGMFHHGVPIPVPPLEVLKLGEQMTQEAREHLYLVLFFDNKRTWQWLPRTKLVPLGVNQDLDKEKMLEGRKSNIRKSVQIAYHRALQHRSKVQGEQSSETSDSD

Sequence of Fibroblast growth factor receptor 2 (Homo sapiens) (P21802 22-821 limits assumed): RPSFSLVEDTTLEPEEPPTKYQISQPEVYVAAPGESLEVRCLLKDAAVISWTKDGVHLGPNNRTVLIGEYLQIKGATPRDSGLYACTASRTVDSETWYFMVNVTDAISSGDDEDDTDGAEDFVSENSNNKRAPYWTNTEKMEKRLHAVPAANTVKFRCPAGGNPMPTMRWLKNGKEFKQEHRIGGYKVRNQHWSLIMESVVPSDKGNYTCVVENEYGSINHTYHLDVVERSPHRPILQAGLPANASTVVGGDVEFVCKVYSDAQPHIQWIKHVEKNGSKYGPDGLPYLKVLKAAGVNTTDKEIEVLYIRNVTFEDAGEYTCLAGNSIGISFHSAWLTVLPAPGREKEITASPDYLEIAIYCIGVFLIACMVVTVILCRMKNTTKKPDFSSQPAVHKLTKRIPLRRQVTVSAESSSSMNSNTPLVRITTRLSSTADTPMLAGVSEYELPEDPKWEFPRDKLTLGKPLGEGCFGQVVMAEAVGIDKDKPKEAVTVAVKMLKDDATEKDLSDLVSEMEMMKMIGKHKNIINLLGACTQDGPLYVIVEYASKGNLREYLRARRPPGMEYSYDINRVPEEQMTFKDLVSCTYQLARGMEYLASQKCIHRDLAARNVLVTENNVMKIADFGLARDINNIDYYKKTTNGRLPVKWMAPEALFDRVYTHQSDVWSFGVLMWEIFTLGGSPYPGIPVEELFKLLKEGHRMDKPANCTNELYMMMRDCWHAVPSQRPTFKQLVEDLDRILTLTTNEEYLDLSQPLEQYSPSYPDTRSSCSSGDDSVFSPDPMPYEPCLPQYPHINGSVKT

SMILES | ΔTm [1] [°C] | ΔTm [2] [°C]
C[C@H](NC(=O)CCc1nc2ccccc2c(=O)[nH]1)c1ccccc1 | 0.69 | -0.15
CC[C@H](C)[C@H](NC(C)=O)C(=O)N[C@@H](CCC(=O)O)C(=O)N[C@H](C(=O)N[C@H](C=O)CC(=O)O)[C@@H](C)O (Ac-IETD-aldehyde) | 0.37 | -0.66
O=C(NNc1ccccn1)c1ccccn1 | 0.02 | 0.74
Cc1ccc2[nH]c3c(c2c1)CCCC3C(N)=O (stereo unspecified) | 0.03 | 0.79
O=C(NCC1(c2nc(-c3ccccc3)cs2)CCOCC1)c1cccc(-c2noc(C(F)(F)F)n2)c1 | -0.34 | -4.49
COC[C@H](NC(=O)c1ccn(S(C)(=O)=O)c1)C(=O)Nc1nc(-c2cccc(-c3ccn(C)n3)c2)cs1 | 0.09 | -0.52
Cc1nc(F)ccc1-c1cc(Cn2ccn(C)c2=N)cc(C(=O)NCc2ccc(Cl)c(Cl)c2)c1 | 0.16 | -1.3
CCC[C@@H]1CNCc2c1[nH]c(=O)c(C#N)c2N1CCC2(CC1)CC2 | 0.64 | -1.25
O=C(O)Cc1ccc(Cc2cc(-c3cccc(Cl)c3)nc(C(F)(F)F)c2)cc1 | -0.76 | -0.4
C#CCNC(=O)[C@H](CO)NC(=O)[C@H](CCCCN(CC)CC)NC(=O)[C@@H](NC(=O)[C@@H](NC(=O)[C@H](Cc1ccc(O)c(Cl)c1)NC(=O)c1cc(Cl)cc(Cl)c1)C1CCCC1)[C@@H](C)CC ({Benzoyl(3,5-Cl2)}-[Tyr(3-Cl)][Gly(cPent)]I[Lys(Et2)]S-{NH(propargyl)}) | -1.31 | 1.15
C(=C\c1ccccc1)/CN1CCN(CCOC(c2ccccc2)c2ccccc2)CC1 | -0.04 | 0.95
Cc1ncccc1-c1cnc(NCc2c(F)ccc3c2CCO3)n2cnnc12 | -0.09 | -0.54
O=c1[nH][nH]c(=O)c2cc(OCC3CCCCC3)ccc12 | 1.11 | 2.63
CC(C)c1c(-c2cnn(C(C)(C)C)c2)[nH]c2c(C#N)cnn2c1=O | 0.36 | 0.8
COc1cc(C(=O)N2C[C@H](N)CC[C@@H]2C)cc2nc(-c3cc4cccnc4n3CC3CC3)n(C)c12 | 0.33 | 0.21
Nc1ncnc2c1c(I)cn2[C@@H]1O[C@H](CO)[C@@H](O)[C@H]1O | 2.17 | 2.98
Cc1ncsc1-c1ccc([C@H](C)NC(=O)[C@@H]2C[C@@H](O)CN2C(=O)[C@@H](NC(=O)CNC(=O)c2ccc(F)c(-c3ccc(N4C[C@@H](C)N(C)[C@@H](C)C4)c(NC(=O)c4c[nH]c(=O)cc4C(F)(F)F)c3)c2)C(C)(C)C)cc1 | -4.38 | -0.15
CNC(=O)O[C@H]1COc2ccc(N3CCN(C4COC4)CC3)cc2[C@@H]1NC(=O)c1ccc(F)cc1 | 0.9 | -1.56
CCOc1ccc(S(=O)(=O)Nc2ccc(Cl)cc2C#Cc2cnc(C(=O)O)cc2OC)c2ncccc12 | 0.19 | 0
COc1cc(-c2cn(C)c(=O)c3cnccc23)cc(OC)c1CN(C)C | 0.18 | 6.51
CN(Cc1cccc(-c2ccncc2)c1)C(=O)Oc1ccc(-c2ccc(C(N)=O)cc2)cc1 | 0.69 | 2.09
Cc1noc(C)c1-c1cc(Cl)c(Nc2ccccc2C(=O)O)c(Cl)c1 | 0.17 | -0.15
COc1cc(C(=O)NCC2(N(C)C)CCCC2)cc(OC)c1OCc1ccccc1 | 0.12 | 2.2
O=C(NCCCn1ccnc1)c1cc2nc(-c3ccccc3)cc(-c3ccccc3)n2n1 | 0.5 | -1.26
CCn1c(=O)c(C)cn(Cc2nnc(-c3ccc(F)c(OC)c3F)s2)c1=O | 0.75 | -0.72
Cc1cc(C)nc(SCC(=O)Nc2ncc(Cc3cccc(OCc4cn(Cc5ccccc5)nn4)c3)s2)n1 | -10.7 | -1.46
O=C(O)/C(S)=C/c1ccc(I)cc1 | -1 | -1.4
CNC[C@@H](O)COc1ccc(Cl)c(-c2nc(-c3c(C)noc3C)c(C)c(N3CC4(CCN(C(=O)OC)CC4)C3)n2)c1 | 0.49 | -1.65
